The test system of one assay is diabetic retinopathy. Kind of assay: Mouse model of diabetic retinopathy (STZ), Evans blue penetration. The class given is in vivo. As to conditions: intravitreal (IVT), 1 μL of 200 μM at 8 and 9 weeks after STZ; Evans blue at 10 weeks; FIG. 4. The method, then: The efficacy of the compounds of the present disclosure was studied in a mouse model of diabetic retinopathy by multiple administrations of streptozotocin (STZ). C57BL/6J mice at 6 to 7 weeks were weighed and their baseline blood glucose was measured (Sino). STZ (Sigma-Aldrich) was injected intraperitoneally into the mice at 55 mg/Kg for five consecutive days. Age-matched controls were injected with buffer only. Blood glucose was measured again one week after the last STZ injection. 1 μL of the test compound (200 μM, a suspension formulated in 0.015% polysorbate 80, 0.2% sodium phosphate, 0.75% sodium chloride, pH 7.2) was injected intravitreally into the STZ-treated diabetic C57BL/6J mice at 8 and 9 weeks after STZ administration. 10 weeks after STZ treatment, the retinal Evans blue penetration assay was performed.

The subject of assay [1] is idiopathic pulmonary fibrosis. Kind of assay: Bleomycin idiopathic pulmonary fibrosis animal model. Conditions: intraperitoneal (IP) 5 mg/kg, 3 consecutive weeks from day 7; Day 28; FIG. 6. The class given is in vivo, SD rats. The method, then:
In this example, the efficacy of the compounds of the present disclosure was tested on idiopathic pulmonary fibrosis in an idiopathic pulmonary fibrosis animal model. Briefly, anesthetized 6-week-old SD rats were fixed on a foam board with medical tape. Firstly, the skin on the surface of the trachea was cut with surgical scissors to fully expose the trachea, and a 100-microlitre micro-syringe containing a certain volume of bleomycin (BLM 5 mg/kg) solution drawn based on the body weight of the rat was inserted into the trachea through the oral cavity to administer by slow bolus injection. After administration of the BLM solution, the foam plate was immediately rotated and shaken to distribute the BLM solution as evenly as possible in the lung tissue. Then the skin on the surface of the trachea was sutured with surgical sutures and about 0.5 to 1.0 mL of penicillin solution was dripped onto the epidermis to prevent infection of the surgical wound. After the 7th day of modelling, the compound solution of the present disclosure was administered via intraperitoneal (IP) injection (5 mg/kg) according to the weight of the rat for 3 consecutive weeks. Rats were euthanized by carbon dioxide at Day 28, the lung tissues were removed, the left alveolar lavage fluid was collected for white blood cell (WBC) counting, the right lung tissue portion was used for hydroxyproline (HYP) assay, and the remaining lung tissues were stained for pathology by H&E staining and Masson staining.

The next assay deals with osteoarthritis. Kind of assay: Osteoarthritis animal model. It counts as in vivo, mice. As to conditions: intra-articular injection; FIG. 7. The protocol:
In this example, the efficacy of the compounds of the present disclosure was tested on osteoarthritis in an osteoarthritis animal model.
The osteoarthritis animal model was constructed by the following steps. The mice were anesthetized with isoflurane, and fixed. The hair on the right hind limb of the mice was shaved and the skin was disinfected with alcohol, and the skin of the joints was cut. Under an optical microscope, the inside of the right knee joint was incised longitudinally with a blade, without cutting the patellar ligament. The patellar ligament was pulled to one side with constant hemostasis by compression with sterile cotton swabs such that the joint cavity was fully exposed. Saline was added dropwise in time to avoid the drying up of the joint cavity. The excess muscle tissue was gently separated with a blunt forceps to expose the meniscus ligament. The anterior cruciate ligament was found in the depth of the joint cavity and cut with micro scissor. Then the wound was disinfected with penicillin solution, the muscle was sutured with sterile needle and thread, and the skin tissue was finally sutured. The efficacy of the drug was determined by intra-articular injection administration. At the endpoint of the test, continued pain threshold of the plantar was detected, and the bone joints were stained with safranin fast green.

A further assay relates to Alzheimer's disease. Kind of assay: APP×PS1 transgenic mouse model of Alzheimer's disease. The class given is in vivo. As to conditions: intraperitoneal injection, twice a week, 11 consecutive weeks; cerebral cortex; FIG. 8. The method, then: In this example, the efficacy of the compounds of the present disclosure was tested on Alzheimer's disease in an animal model of Alzheimer's disease. Briefly, a transgenic mouse model of APP×PS1 (purchased from Cyagen Biosciences) was selected and the compound of the present disclosure was administered by intraperitoneal injection for 11 consecutive weeks, twice a week. Alterations in amyloid in the cerebral cortex of the mice were observed.

The test system of a further assay is hepatic fibrosis. Put plainly: CCl4 mouse model of hepatic fibrosis. It counts as in vivo, mice. As to conditions: intraperitoneal (IP) injection twice a week from third week of modelling; FIG. 9. The method, then: In this example, the efficacy of the compounds of the present disclosure was tested on hepatic fibrosis in an animal model of hepatic fibrosis. Briefly, C57BL/6N mice, male, 7 to 8 weeks old, 24 to 28 g of body weight, were used. The mouse model of hepatic fibrosis was induced by intraperitoneal injection of CCl4 solution at a dosage of 1 mL/kg, with a dosing frequency of 2 times/week, and a modelling cycle of 6 weeks. Dosing via intraperitoneal injection was started from the third week of modelling twice a week. At the end of the test, serum was collected, and liver tissue was taken for Masson staining index assay.

In the next assay the test system is aging skin. Kind of assay: Aging skin in naturally aging mouse model. The class given is in vivo. As to conditions: skin application twice a week, 6 consecutive weeks; aged female mice (22 months old); FIG. 10. The protocol:
In this example, aged female C57bl/6J mice (22 months old) were used. The drug was administered by skin application at twice a week for 6 consecutive weeks.

The test system of another assay is renal fibrosis. Kind of assay: Renal fibrosis animal model (ureter ligation). It counts as in vivo, mice. Conditions: intraperitoneal (IP) injection from 2nd week of modelling; FIG. 11. The protocol: In this example, the efficacy of the compound of the present disclosure was tested on renal fibrosis in an animal model of renal fibrosis. Briefly, C57BL/6J mice, male, 7 to 8 weeks old, were used. The mice were anaesthetized, made to lie supine on a foam board, and disinfected with iodophor, and a longitudinal incision was made in the skin in the middle of the lower abdomen to locate the white line of the abdominal muscle, where the abdominal muscle, fascia and peritoneal layer were dissected. After exposing the surgical field, the kidneys were exposed by pushing the stomach and mesentery of the mice to the right side with a gauze soaked with saline. The model of renal fibrosis was constructed by locating the transparent ureter from the renal pelvis along the renal artery, separating the left ureter, ligating the upper ⅓ of the left ureter, suturing the incision layer by layer, and finally disinfecting with iodophor. Dosing via intraperitoneal injection was started from the 2nd week of modelling. At the end of the experiment, the mouse serum was collected and kidney tissues were taken for Masson staining index assay.

Here are results for 2 molecules from US20250376466A1, “ESTER COMPOUNDS AND USE THEREOF” (NANJING REJU THERAPEUTICS, CO., LTD., priority 2022, published 2025).

For `Cc1oc(=O)oc1COC(=O)c1nc(N2CCc3cccc(C(=O)Nc4nc5ccccc5s4)c3C2)ccc1-c1cnn(CC23CC4CC(CC(C4)C2)C3)c1C` [RZ201], the “vascular permeability in both the retinal and choroidal vascular leakage” value in the assay on diabetic retinopathy is given as “improved vascular permeability”. Further, in assay [1], the “HYP (hydroxyproline, lung tissue)” value is “statistically significant improvements”; the “WBC (white blood cell count, alveolar lavage fluid)” value is “statistically significant improvements”; the “pathology scores (H&E and Masson staining, lung)” value was “statistically significant improvements”. In the assay on osteoarthritis, the “pathology scores of safranin fast green staining” value is reported as “statistically significant improvements” and the “plantar mechanical pain threshold” value is on record as “statistically significant improvements”. Further, the “Aβ42 pathogenic protein indicators” value in the assay with Alzheimer's disease was “statistically significant improvements”. Moreover, in the assay on hepatic fibrosis, the “pathology scores (liver, Masson staining)” value is on record as “statistically significant improvements”; the “serum alanine aminotransferase (ALT) levels” value is listed as “statistically significant improvements”; the “serum aspartate aminotransferase (AST) levels” value is given as “statistically significant improvements”. The “epidermal thickness scores of the skin” value in the assay on aging skin is “statistically significant improvements”. In addition, in the assay on renal fibrosis, the “pathology (kidney, Masson staining)” value is reported as “statistically significant improvements”; the “serum creatinine (Cr) levels” value was “statistically significant improvements”; the “serum urea nitrogen (BUN) levels” value is recorded as “statistically significant improvements”.
Regarding `Cc1c(-c2ccc(N3CCc4cccc(C(=O)Nc5nc6ccccc6s5)c4C3)nc2C(=O)OCOC(=O)C(C)C)cnn1CC12CC3CC(CC(C3)C1)C2` [RZ001], the “vascular permeability in both the retinal and choroidal vascular leakage” value with diabetic retinopathy is recorded as “improved vascular permeability”. In assay [1], the “HYP (hydroxyproline, lung tissue)” value is “statistically significant improvements”; the “WBC (white blood cell count, alveolar lavage fluid)” value is on record as “statistically significant improvements”; the “pathology scores (H&E and Masson staining, lung)” value is recorded as “statistically significant improvements”. Further, in the assay on osteoarthritis, the “pathology scores of safranin fast green staining” value is listed as “statistically significant improvements” and the “plantar mechanical pain threshold” value is “statistically significant improvements”. Further, in the assay with Alzheimer's disease, the “Aβ42 pathogenic protein indicators” value is recorded as “statistically significant improvements”. Besides, in the assay with hepatic fibrosis, the “pathology scores (liver, Masson staining)” value was “statistically significant improvements”; the “serum alanine aminotransferase (ALT) levels” value was “statistically significant improvements”; the “serum aspartate aminotransferase (AST) levels” value was “statistically significant improvements”. Further, the “epidermal thickness scores of the skin” value with aging skin is recorded as “statistically significant improvements”. In the assay with renal fibrosis, the “pathology (kidney, Masson staining)” value was “statistically significant improvements”; the “serum creatinine (Cr) levels” value is “statistically significant improvements”; the “serum urea nitrogen (BUN) levels” value is reported as “statistically significant improvements”.
